Experimental findings from patent publication US8946453B2, “Chemical compounds” (Syngenta Participations AG, priority 2011, dated 2015) are described below.

Some results are limits rather than exact numbers.

The test system of data set [1] is Myzus persicae (Green Peach Aphid). The experiment in a line: Activity against Myzus persicae, mixed population, systemic/feeding, curative (pea seedling roots in test solution). Conditions: 144 h, read-out: activity.
Data set [2] shares this test system. The experiment in a line: Activity against Myzus persicae, mixed population, feeding/residual contact, preventive (sunflower leaf discs). The conditions noted are these: foliar, 144 h, read-out: activity.
Data set [3] has the same test system. The experiment in a line: Activity against Myzus persicae on cabbage plants, feeding/residual contact, spray chamber. The conditions noted are these: in Brassica oleracea, 144 h, read-out: activity against Myzus persicae.

For the compound `CCOC(=O)OC1=C(c2cc(C)ccc2C)C(=O)NC1CC1CCS(=O)(=O)CC1` (stereo not drawn) [Compound P1.3], the melting point is 97 to 101 °C.

In the case of `CCOC(=O)OC1=C(c2c(C)cc(C)cc2C)C(=O)NC1C1CCN(OC)CC1` (stereo not drawn) [Compound P1.12, carbonic acid ethyl ester 2-(1-methoxy-piperidin-4-yl)-5-oxo-4-(2,4,6-trimethyl-phenyl)-2,5-dihydro-1H-pyrrol-3-yl ester], the pest or weed control at 400 ppm in data set [1] and in data set [2] was greater than 80% in each case. The pest or weed control at 200 ppm in data set [3] is no less than 80%. For the compound `CCOC(=O)OC1=C(c2cc(C)ccc2C)C(=O)NC1C1CCN(OC)CC1` (stereo not drawn) [Compound P1.11], the pest or weed control at 400 ppm in data set [1] is greater than 80%. For the same compound, in data set [3], the pest or weed control at 200 ppm was no less than 80%. With `CON1CCC(C2OC(=O)C(c3c(C)cc(C)cc3C)C2=O)CC1` (stereo not drawn) [Compound P2.17], the pest or weed control at 400 ppm in data set [1] and in data set [2] was greater than 80% throughout. In addition, the pest or weed control at 200 ppm in data set [3] was no less than 80%.

For `CCOC(=O)OC1=C(c2c(C)cc(Cl)cc2C)C(=O)NC1CC1CCN(OC)CC1` (stereo not drawn) [Compound P1.19], in data set [1], the pest or weed control at 400 ppm was greater than 80%. For the compound `CCOC(=O)OC1=C(c2c(C)cc(C)cc2C)C(=O)OC1CC1CCN(OC)CC1` (stereo not drawn) [Compound P1.14], the pest or weed control at 400 ppm in data set [1] was greater than 80%. Also, the pest or weed control at 200 ppm in data set [3] was no less than 80%. In the case of `CCOC(=O)OC1=C(c2c(C)cc(C)cc2C)C(=O)OC1C1CCN(OC)CC1` (stereo not drawn) [Compound P1.15], the pest or weed control at 400 ppm in data set [1] and in data set [2] was greater than 80% throughout. Also, in data set [3], the pest or weed control at 200 ppm was no less than 80%. Regarding `CON1CCC(C2NC(=O)C(c3cc(C)ccc3C)C2=O)CC1` (stereo not drawn) [Compound P2.14], the pest or weed control at 200 ppm in data set [3] was no less than 80%.

For the compound `CCOC(=O)OC1=C(c2cc(C)ccc2C)C(=O)NC1CC1CCS(=O)(=NC(=O)C(F)(F)F)CC1` (single isomer, unassigned) [Compound P1.6, carbonic acid 4-(2,5-dimethyl-phenyl)-5-oxo-2-[1-oxo-1-(2,2,2-trifluoro-acetylimino)-hexahydro-1λ^6-thiopyran-4-ylmethyl]-2,5-dihydro-1H-pyrrol-3-yl ester ethyl ester], the melting point was in the range of 91 to 93 °C. In the case of `CCOC(=O)OC1=C(c2c(C)cc(C)cc2C)C(=O)N(C)C1CC1CCN(OC)CC1` (stereo not drawn) [Compound P1.13], in data set [2], the pest or weed control at 400 ppm is greater than 80%. In addition, the pest or weed control at 200 ppm in data set [3] is no less than 80%. As for `CON1CCC(CC2NC(=O)C(c3c(C)cc(C)cc3C)C2=O)CC1` (stereo not drawn) [Compound P2.13], the pest or weed control at 400 ppm in data set [1] and in data set [2] was greater than 80% in each case. In addition, the pest or weed control at 200 ppm in data set [3] is no less than 80%. Take `CON1CCC(C2NC(=O)C(c3c(C)cc(Cl)cc3C)C2=O)CC1` (stereo not drawn) [Compound P2.21]: the pest or weed control at 400 ppm in data set [1] and in data set [2] was greater than 80% throughout. Further, the pest or weed control at 200 ppm in data set [3] is no less than 80%.

Take `CCOC(=O)OC1=C(c2cc(C)ccc2C)C(=O)NC1CC1CCN(OC)CC1` (stereo not drawn) [Compound P1.1, carbonic acid 4-(2,5-dimethyl-phenyl)-2-(1-methoxy-piperidin-4-ylmethyl)-5-oxo-2,5-dihydro-1H-pyrrol-3-yl ester ethyl ester]: the pest or weed control at 400 ppm in data set [2] was greater than 80%. The pest or weed control at 200 ppm in data set [3] is no less than 80%.

As for `Cc1cc(C)c(C2=C(OC(=O)C(C)(C)C)C(CC3CCOCC3)OC2=O)c(C)c1` (stereo not drawn) [Compound P1.16], the pest or weed control at 400 ppm in data set [2] was greater than 80%. Consider `CON1CCC(CC2NC(=O)C(c3c(C)cc(Cl)cc3C)C2=O)CC1` (stereo not drawn) [Compound P2.22], for which the pest or weed control at 400 ppm in data set [2] is greater than 80%. Moreover, the pest or weed control at 200 ppm in data set [3] is no less than 80%. The compound `Cc1cc(C)c(C2C(=O)NC(CC3CCN(C)CC3)C2=O)c(C)c1` (stereo not drawn) [Compound P2.11] returned a melting point of 133 to 136 °C. Turning to `Cc1ccc(C)c(C2C(=O)NC(CC3CCN(C)CC3)C2=O)c1` (stereo not drawn) [Compound P2.10], the melting point fell in the range of 142 to 145 °C. Regarding `CCOC(=O)OC1=C(c2c(C)cc(Cl)cc2C)C(=O)NC1C1CCN(OC)CC1` (stereo not drawn) [Compound P1.18], in data set [2], the pest or weed control at 400 ppm was greater than 80%. On to `CCOC(=O)OC1=C(c2cc(C)ccc2C)C(=O)NC1CC1CCSCC1` (stereo not drawn) [Compound P1.2, carbonic acid 4-(2,5-dimethyl-phenyl)-5-oxo-2-(tetrahydro-thiopyran-4-ylmethyl)-2,5-dihydro-1H-pyrrol-3-yl ester ethyl ester], for which the melting point was in the range of 75 to 76 °C. On the same count and under the same terms, for `CCOC(=O)OC1=C(c2cc(C)ccc2C)C(=O)NC1CC1CCS(=O)(=NC(=O)C(F)(F)F)CC1` (single isomer, unassigned) [Compound P1.7, carbonic acid 4-(2,5-dimethyl-phenyl)-5-oxo-2-[1-oxo-1-(2,2,2-trifluoro-acetylimino)-hexahydro-1λ^6-thiopyran-4-ylmethyl]-2,5-dihydro-1H-pyrrol-3-yl ester ethyl ester] the value was 87 to 89 °C. As for `Cc1cc(C)c(C2C(=O)NC(CC3CCOCC3)C2=O)c(C)c1` (stereo not drawn) [Compound P2.1], the pest or weed control at 400 ppm in data set [2] is greater than 80%. Regarding `Cc1ccc(C)c(C2=C(O)C(CC3CCS(=O)(=O)CC3)NC2=O)c1` (stereo not drawn) [Compound P2.6, 3-(2,5-dimethyl-phenyl)-5-(1,1-dioxo-hexahydro-1λ^6-thiopyran-4-ylmethyl)-4-hydroxy-1,5-dihydro-pyrrol-2-one], the melting point was 244 to 246 °C. Turning to `CCOC(=O)OC1=C(c2cc(C)ccc2C)C(=O)NC1CC1CCS(=NC(=O)C(F)(F)F)CC1` (stereo not drawn) [Compound P1.8], the melting point lay in the range of 190 to 192 °C. `Cc1ccc(C)c(C2C(=O)NC(CC3CCOCC3)C2=O)c1` (stereo not drawn) [Compound P2.4] yielded a melting point of 114 to 116 °C. `Cc1ccc(C)c(C2C(=O)NC(CC3CCS(=O)(=NC#N)CC3)C2=O)c1` (stereo not drawn) [Compound P2.9] came in with a melting point of 189 to 191 °C.

`CON1CCC(CC2NC(=O)C(c3cc(C)ccc3C)=C2O)CC1` (stereo not drawn) [Compound P2.2, 3-(2,5-dimethyl-phenyl)-4-hydroxy-5-(1-methoxy-piperidin-4-ylmethyl)-1,5-dihydro-pyrrol-2-one]: the pest or weed control at 400 ppm in data set [2] is greater than 80%. The compound `CCOC(=O)OC1=C(c2cc(C)ccc2C)C(=O)NC1CC1CCS(=NC#N)CC1` (stereo not drawn) [Compound P1.9, carbonic acid 2-(1-cyanoimino-hexahydro-1λ^4-thiopyran-4-ylmethyl)-4-(2,5-dimethyl-phenyl)-5-oxo-2,5-dihydro-1H-pyrrol-3-yl ester ethyl ester] came in with a melting point of 103 to 105 °C. Take `CON1CCC(C2NC(=O)C(c3c(C)cc(C)cc3C)=C2O)CC1` (stereo not drawn) [Compound P2.12, 4-hydroxy-5-(1-methoxy-piperidin-4-yl)-3-(2,4,6-trimethyl-phenyl)-1,5-dihydro-pyrrol-2-one]: the melting point was 206 to 209 °C. For `CCOC(=O)OC1=C(c2cc(C)ccc2C)C(=O)NC1CC1CCS(=O)(=NC#N)CC1` (stereo not drawn) [Compound P1.5], the pest or weed control at 400 ppm in data set [2] was greater than 80%. `CCOC(=O)OC1=C(c2c(C)cc(C)cc2C)C(=O)NC1CC1CCN(OC)CC1` (stereo not drawn) [Compound P1.10]: the pest or weed control at 400 ppm in data set [1] and in data set [2] was greater than 80% throughout. The pest or weed control at 200 ppm in data set [3] is no less than 80%. As to `CCOC(=O)OC1=C(c2cc(C)ccc2C)C(=O)NC1CC1CC[S+]([O-])CC1` (stereo not drawn) [Compound P1.4, carbonic acid 4-(2,5-dimethyl-phenyl)-5-oxo-2-(1-oxo-hexahydro-1λ^4-thiopyran-4-ylmethyl)-2,5-dihydro-1H-pyrrol-3-yl ester ethyl ester], the melting point is 103 to 106 °C. With `CON1CCC(CC2OC(=O)C(c3c(C)cc(C)cc3C)C2=O)CC1` (stereo not drawn) [Compound P2.16], the pest or weed control at 400 ppm in data set [1] and in data set [2] was greater than 80% each time. The pest or weed control at 200 ppm in data set [3] is no less than 80%.

For orientation: melting point means the temperature of the solid-liquid transition.
